Read-outs that look alike come from different tables or passages of the source.
Biological target: PAR4 (Homo sapiens (Human), UniProt Q96RI0)
Assay: PAR4 FLIPR assay (antagonism of agonist-peptide-induced calcium mobilization)
Format: cell-based
Details: PAR4-expressing HEK293 cells, read-out: PAR4 FLTPR assay (IC50)
Summary of the method: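 HEK293 cells stably expressing human PAR4 (also endogenous PAR1), loaded with fluorescent calcium indicator in HBSS/20 mM HEPES; compounds added at 0.17% DMSO, read on FDSS for agonism, then 30 min RT before H-Ala-Phe(4-F)-peptide agonist challenge. Potency from 11-point concentration-response curves.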

[1] = H-Ala-Phe(4-F)-[…]NH2-induced intracellular calcium mobilization
[2] = H-Ala-Phe(4-F)-Pro-Gly-Trp-Leu-Val-Lys-Asn-Gly-NH2-induced intracellular calcium mobilization

PAR4, sequence (Q96RI0 18-385): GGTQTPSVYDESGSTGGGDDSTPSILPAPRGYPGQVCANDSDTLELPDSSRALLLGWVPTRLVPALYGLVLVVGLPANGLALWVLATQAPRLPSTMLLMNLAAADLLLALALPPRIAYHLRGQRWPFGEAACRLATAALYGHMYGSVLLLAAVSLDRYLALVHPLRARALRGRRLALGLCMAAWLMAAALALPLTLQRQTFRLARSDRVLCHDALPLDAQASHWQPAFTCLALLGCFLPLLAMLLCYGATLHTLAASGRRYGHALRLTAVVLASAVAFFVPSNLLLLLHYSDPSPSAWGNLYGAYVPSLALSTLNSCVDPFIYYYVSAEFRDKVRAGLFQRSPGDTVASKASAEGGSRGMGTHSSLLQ

Compound | IC50 [1] [nM] | IC50 [2] [nM]
COc1cnc2c(-c3nc4cc(F)c(O[C@@H]5CC[C@@H]5OC(=O)Nc5cnc(C)nc5)cc4s3)cc(Cl)cc2c1 (racemic) [Example 82] | 1.1 | 
COc1cnc2c(-c3nc4cc(F)c(O[C@@H]5CCCC[C@H]5OC(=O)Nc5cnc(C)nc5)cc4s3)cc(C)cc2n1 (racemic) [Example 54, rac-trans-2-((5-fluoro-2-(2-methoxy-7-methylquinoxalin-5-yl)benzo[d]thiazol-6-yl)oxy)cyclohexyl (2-methylpyrimidin-5-yl)carbamate] | 13 | 
COc1cnc2c(-c3nc4cc(F)c(O[C@H]5CCC[C@H]5OC(=O)Nc5ccc(C#N)nc5)cc4s3)cc(C)cc2n1 [Example 36] |  | 2.4
COc1cnc2c(-c3nc4cc(F)c(O[C@@H]5CC[C@@H]5OC(=O)Nc5cnc(OCCO)nc5)cc4s3)cc(Cl)cc2c1 (racemic) [Example 79] | 0.9 | 
COc1cnc2c(-c3nc4cc(F)c(O[C@@H]5CCCC[C@@H]5OC(=O)Nc5cccnc5)cc4s3)cc(C)cc2n1 (racemic) [Example 55, rac-cis-2-((5-fluoro-2-(2-methoxy-7-methylquinoxalin-5-yl)benzo[d]thiazol-6-yl)oxy) cyclohexyl pyridin-3-ylcarbamate] | 1.4 | 
COc1cnc2c(-c3nc4cc(F)c(O[C@H]5CC(F)(F)CC[C@H]5OC(=O)Nc5cnc(CO)nc5)cc4s3)cc(C)cc2n1 [Example 10] |  | 23
CCOc1cnc2c(-c3nc4cc(F)c(O[C@@H]5CC[C@@H]5OC(=O)Nc5cnc(OCCO)nc5)cc4s3)cc(C)cc2n1 [Example 75] |  | 5.9
COc1cnc2c(-c3nc4cc(F)c(O[C@@H]5CCC[C@@H]5OC(=O)Nc5cccnc5)cc4s3)cc(CO)cc2n1 (racemic) [Example 44, rac-cis-2-((5-fluoro-2-(7-(hydroxymethyl)-2-methoxyquinoxalin-5-yl)benzo[d]thiazol-6-yl)oxy)cyclopentyl pyridin-3-ylcarbamate] | 25 | 
COC(=O)c1ccc(NC(=O)O[C@@H]2CCC[C@@H]2Oc2cc3sc(-c4cc(C)cc5nc(OC)cnc45)nc3cc2F)cn1 [Example 47, methyl 5-(((((1R,2S)-2-((5-fluoro-2-(2-methoxy-7-methylquinoxalin-5-yl)benzo[d]thiazol-6-yl)oxy)cyclopentyl)oxy)carbonyl)amino)picolinate] |  | 4.2

From patent US10730868B2, “Bicyclic heteroaryl substituted compounds” (BRISTOL-MYERS SQUIBB COMPANY, priority 2016, dated 2020)
